In patent publication US20210290648A1, “Potentiation of B-Lactam Antibiotics and B-Lactam/B-Lactamase Inhibitor Combinations Against Multidrug and Extensively Drug-Resistant Pseudomonas Aeruginosa Using Non-Ribosomal Tobramycin-Cyclam Conjugates” (University of Manitoba, priority 2018, published 2021):

Tests used:
[1] = tested on: β-lactamase-harboring MDR P. aeruginosa clinical isolates; assay: Triple combination susceptibility (β-lactam + avibactam + compound 2); type: cell-based, Pseudomonas aeruginosa
From the text: The diazabicyclooctane β-lactamase inhibitor, avibactam, is able to inhibit a wide range of serine β-lactamases (class A, C, and D) but not metallo-β-lactamases (class B) (50, 51).^50,51 However, the high concentration of avibactam required to neutralize the effects of β-lactamase enzymes in these phenotypes is indicative of concomitant permeability barriers in the isolates, such as reduced porin uptake. […] The results of this study are shown in (FIG. 6). All isolates were resistant to all three β-lactam antibiotics used for the study. […] As expected, the study with meropenem was slightly different from others.
(§1) Antimicrobial Susceptibility Assay. The in vitro antimicrobial activity of all compounds/antibiotics against a panel of bacteria was evaluated by microbroth dilution method in accordance with the Clinical and Laboratory Standards Institute (CLSI) guidelines. Overnight grown bacterial cultures were diluted in saline to achieve a 0.5 McFarland turbidity, followed by 1:50 dilution in Mueller-Hinton broth (MHB) for inoculation to a final concentration of approximately 5×10^5CFU/mL. The antimicrobial agents were 2-fold serially diluted in MHB in a 96-well plate and incubated at 37° C. with equal volumes of inoculum for 18 h. The lowest concentration that prevented the visible growth of bacteria was defined as the MIC for each antimicrobial agent. The broth with or without bacterial cells was used as positive or negative control, respectively.
Checkerboard Assay. Combination studies with different antibiotics were performed in 96-well plates as previously described (22). Briefly, the antibiotic of interest was serially diluted in MHB along the abscissa while the adjuvant (newly synthesized conjugates) was serially diluted in MHB along the ordinate. This creates a 10×7 matrix wherein each well consists of a combination of different antibiotic and adjuvant concentrations. Overnight grown bacterial cultures were diluted in saline to achieve a 0.5 McFarland turbidity, followed by 1:50 dilution in Mueller-Hinton broth (MHB) for inoculation to a final concentration of approximately 5×10^5CFU/mL. Equal volume of this bacterial culture was then added to each well and incubated at 37° C. for 18 h. After incubation, the plates were read on EMax® Plus microplate reader (Molecular Devices, Sunnyvale, Calif., USA) at 590 nm. MIC was recorded as wells with the lowest concentration of drugs with no bacterial growth. The fractional inhibitory concentration (FIC) for each antibiotic was calculated by dividing the MIC of the antibiotic in the presence of adjuvant by the MIC of the antibiotic alone. Similarly, the FIC of adjuvant was calculated by dividing the MIC of the adjuvant in the presence of antibiotic by the MIC of the adjuvant alone. FIC index is the sum of both FICs. FIC indices of <0.5 were deemed synergistic; 0.5-4, no interaction; and >4, antagonistic.

MRSA ATCC 33592 = assay: MIC, microbroth dilution; type: cell-based; conditions: standalone
Protocol: as §1

MSSE CANWARD-2008 81388 = assay: MIC, microbroth dilution; type: cell-based; conditions: standalone
Protocol: as §1

E. coli ATCC 25922 = assay: MIC, microbroth dilution; type: cell-based; conditions: standalone
Protocol: as §1

[2] = humans; cited from earlier work

Row | Compound | effect on activity of ceftolozane-tazobactam combinations ([1]; all β-lactamase-harboring isolates tested) | isolates below aztreonam susceptible breakpoint ([1]; aztreonam + avibactam + compound 2, 8 μM each) | isolates reaching aztreonam susceptibility breakpoint (≤8 μg/ml) ([1]; aztreonam + single adjuvant 8 μM) | isolates below ceftazidime susceptible breakpoint ([1]; ceftazidime + avibactam + compound 2, 8 μM each) | isolates reaching ceftazidime susceptibility breakpoint (≤8 μg/ml) ([1]; ceftazidime + single adjuvant 8 μM) | isolates reaching meropenem susceptible levels ([1]; meropenem + avibactam + compound 2, 8 μM each) | isolates reaching meropenem susceptibility level ([1]; meropenem + single adjuvant 8 μM) | potentiation of ceftazidime ([1]; single adjuvant at 8 μM, five isolates) [fold] | MIC (MRSA ATCC 33592) [µg/mL] | MIC (MSSE CANWARD-2008 81388) [µg/mL] | MIC (E. coli ATCC 25922) [µg/mL] | achievable plasma concentration [2] [µg/mL]
1 | 5-O-(Octylcyclam)-tobramycin.9TFA [Compound 2] | did not improve the activity | all five isolates | two out of five | all isolates | one of five | three out of five | zero of five | 4 | 64 | 16 | 64 | –
2 | C[C@@H](O)[C@H]1C(=O)N2C(C(=O)O)=C(S[C@@H]3CN[C@H](C(=O)N(C)C)C3)[C@H](C)[C@H]12 [Meropenem] | – | – | – | – | – | – | – | – | – | – | – | > 8
